Values joined by “and” are separate entries in the source; they are usually repeats but may differ in a detail not shown here. Identical values can stand only once. Inconclusive results and toxic doses are left out.
Test system: L1210 leukemia ip in BDF1 mice, survival T/C
Test: NCI In Vivo Anticancer Drug Screen. Data for tumor model L1210 Leukemia (intraperitoneal) in B6D2F1 (BDF1) mice
Conditions: endpoint: mean survival time, higher = longer survival
Outline: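 Tumor cells were implanted, animals were treated, and survival was followed. The result divides the treated measurement by the vehicle-control measurement.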

[1] = dose: 100.0 mg/kg/injection, schedule: Q04DX003 (ip), vehicle: saline with Tween-80
[2] = dose: 200.0 mg/kg/injection, schedule: Q04DX003 (ip), vehicle: saline with Tween-80
[3] = dose: 400.0 mg/kg/injection, schedule: Q04DX003 (ip), vehicle: saline with Tween-80
[4] = dose: 100.0 mg/kg/injection, schedule: Q01DX Z (ip), vehicle: saline
[5] = dose: 100.0 mg/kg/injection, schedule: Q01DX009 (ip), vehicle: Klucel (hydroxypropylcellulose) (HPC)
[6] = dose: 100.0 mg/kg/injection, schedule: Q04DX003 (ip), vehicle: Klucel (hydroxypropylcellulose) (HPC)
[7] = dose: 200.0 mg/kg/injection, schedule: Q01DX009 (ip), vehicle: Klucel (hydroxypropylcellulose) (HPC)
[8] = dose: 200.0 mg/kg/injection, schedule: Q04DX003 (ip), vehicle: Klucel (hydroxypropylcellulose) (HPC)
[9] = dose: 400.0 mg/kg/injection, schedule: Q04DX003 (ip), vehicle: Klucel (hydroxypropylcellulose) (HPC)
[10] = dose: 400.0 mg/kg/injection, schedule: Q01DX009 (ip), vehicle: Klucel (hydroxypropylcellulose) (HPC)
[11] = dose: 100.0 mg/kg/injection, schedule: Q01DX001 (ip), vehicle: saline
[12] = dose: 200.0 mg/kg/injection, schedule: Q01DX001 (ip), vehicle: saline
[13] = dose: 400.0 mg/kg/injection, schedule: Q01DX001 (ip), vehicle: saline
[14] = dose: 100.0 mg/kg/injection, schedule: Q01DX005 (ip), vehicle: saline
[15] = dose: 200.0 mg/kg/injection, schedule: Q01DX005 (ip), vehicle: saline

In the case of `CC(=O)NC1C(OC(C)=O)OC(COC(C)=O)C(OC(C)=O)C1OC(C)=O` (stereo not drawn), the T/C (dose: 100.0 mg/kg/injection, schedule: Q01DX001 (ip), vehicle: saline with Tween-80) is reported as 100 % of control, the T/C (dose: 200.0 mg/kg/injection, schedule: Q01DX001 (ip), vehicle: saline with Tween-80) is reported as 103 % of control and the T/C (dose: 400.0 mg/kg/injection, schedule: Q01DX001 (ip), vehicle: saline with Tween-80) is reported as 103 % of control.
For `COc1cccc2c1CCC/C2=N\N(C)C`, the T/C (dose: 100.0 mg/kg/injection, schedule: Q04DX003 (sc), vehicle: olive oil, sesame oil, peanut oil) was 107 % of control, the T/C (dose: 200.0 mg/kg/injection, schedule: Q04DX003 (sc), vehicle: olive oil, sesame oil, peanut oil) was 105 % of control and the T/C (dose: 400.0 mg/kg/injection, schedule: Q04DX003 (sc), vehicle: olive oil, sesame oil, peanut oil) was 109 % of control.
In the case of `CCOC1=C(C)C(=O)C1C` (stereo not drawn), the T/C (dose: 100.0 mg/kg/injection, schedule: Q01DX009 (ip), vehicle: saline) is reported as 111 % of control, the T/C (dose: 200.0 mg/kg/injection, schedule: Q01DX009 (ip), vehicle: saline) is reported as 101 % of control and the T/C (dose: 400.0 mg/kg/injection, schedule: Q01DX009 (ip), vehicle: saline) is reported as 113 % of control.
With `CCCCCCCCC(=O)N(CCC)CCC` the T/C (dose: 100.0 mg/kg/injection, schedule: Q01DX009 (ip), vehicle: carboxymethylcellulose (CMC)) was 94 % of control and 97 % of control, the T/C (dose: 100.0 mg/kg/injection, schedule: Q04DX002 (ip), vehicle: carboxymethylcellulose (CMC)) was 96 % of control and the T/C (dose: 200.0 mg/kg/injection, schedule: Q01DX009 (ip), vehicle: carboxymethylcellulose (CMC)) was 93 % of control and 96 % of control. For the same molecule, the T/C (dose: 200.0 mg/kg/injection, schedule: Q04DX002 (ip), vehicle: carboxymethylcellulose (CMC)) was 96 % of control, the T/C (dose: 400.0 mg/kg/injection, schedule: Q01DX009 (ip), vehicle: carboxymethylcellulose (CMC)) was 94 % of control and 90 % of control and the T/C (dose: 400.0 mg/kg/injection, schedule: Q04DX002 (ip), vehicle: carboxymethylcellulose (CMC)) was 96 % of control.
For `Clc1ccc(SSc2ccc(Cl)cc2)cc1`, the T/C [1] was 102 % of control, the T/C [2] was 94 % of control and the T/C [3] was 98 % of control.
With `CCOC(=O)c1ccc[n+](CCCl)c1` the T/C (dose: 10.0 mg/kg/injection, schedule: Q01DX Z (ip), vehicle: saline) was 98 % of control, the T/C (dose: 30.0 mg/kg/injection, schedule: Q01DX Z (ip), vehicle: saline) was 97 % of control and the T/C [4] was 90 % of control.
`O=C(O)COc1ccc(F)cc1Cl` was tested, and the T/C [5] was 93 % of control, the T/C [6] was 96 % of control and the T/C [7] was 96 % of control. For the same molecule, the T/C [8] was 98 % of control and the T/C [9] was 94 % of control.
`N#CC1(Nc2cccc(C(F)(F)F)c2)CCCCC1` was tested, and the T/C [5] was 94 % of control, the T/C [7] was 105 % of control and the T/C [10] was 100 % of control.
In the case of `O=C(CC(=O)c1ccco1)c1ccccc1`, the T/C [11] is reported as 102 % of control, the T/C [12] is reported as 100 % of control and the T/C [13] is reported as 96 % of control.
For `CN1CCCC1c1cccnc1` (stereo not drawn), the T/C (dose: 0.5 mg/kg/injection, schedule: Q01DX009 (ip), vehicle: saline) was 97 % of control, the T/C (dose: 0.5 mg/kg/injection, schedule: Q01DX Z (ip), vehicle: saline) was 97 % of control and the T/C (dose: 1.0 mg/kg/injection, schedule: Q01DX009 (ip), vehicle: saline) was 95 % of control and 87 % of control. The T/C (dose: 1.0 mg/kg/injection, schedule: Q01DX Z (ip), vehicle: saline) was 94 % of control and the T/C (dose: 2.0 mg/kg/injection, schedule: Q01DX Z (ip), vehicle: saline) was 95 % of control.
With `CCOC(=O)CCCN(c1sc(C)c(-c2ccccc2)c1C(=O)OCC)S(=O)(=O)c1ccc(C)cc1` the T/C (dose: 25.0 mg/kg/injection, schedule: Q01DX009 (ip), vehicle: saline with Tween-80) was 93 % of control, the T/C (dose: 50.0 mg/kg/injection, schedule: Q01DX009 (ip), vehicle: saline with Tween-80) was 93 % of control and the T/C (dose: 50.0 mg/kg/injection, schedule: Q04DX003 (ip), vehicle: saline with Tween-80) was 98 % of control. For the same molecule, the T/C [1] was 104 % of control, the T/C (dose: 200.0 mg/kg/injection, schedule: Q01DX009 (ip), vehicle: saline with Tween-80) was 90 % of control and the T/C [2] was 97 % of control. For the same molecule, the T/C (dose: 400.0 mg/kg/injection, schedule: Q01DX009 (ip), vehicle: saline with Tween-80) was 90 % of control and the T/C [3] was 87 % of control.
`c1ccc(-c2oc(-c3ccccc3)c3ccccc23)cc1` was tested, and the T/C (dose: 6.25 mg/kg/injection, schedule: Q01DX009 (ip), vehicle: Klucel (hydroxypropylcellulose) (HPC)) was 101 % of control, the T/C (dose: 6.25 mg/kg/injection, schedule: Q04DX003 (ip), vehicle: Klucel (hydroxypropylcellulose) (HPC)) was 96 % of control and the T/C (dose: 12.5 mg/kg/injection, schedule: Q01DX009 (ip), vehicle: Klucel (hydroxypropylcellulose) (HPC)) was 102 % of control. The T/C (dose: 12.5 mg/kg/injection, schedule: Q04DX003 (ip), vehicle: Klucel (hydroxypropylcellulose) (HPC)) was 93 % of control, the T/C (dose: 25.0 mg/kg/injection, schedule: Q01DX009 (ip), vehicle: Klucel (hydroxypropylcellulose) (HPC)) was 96 % of control and the T/C (dose: 25.0 mg/kg/injection, schedule: Q04DX003 (ip), vehicle: Klucel (hydroxypropylcellulose) (HPC)) was 96 % of control.
In the case of `O=c1[nH]nnc2nn(C3OC(CO)C(O)C3O)cc12` (stereo not drawn), the T/C [14] is reported as 103 % of control and the T/C [15] is reported as 109 % of control.
For `CSc1sc2ccccc2[n+]1C`, the T/C (dose: 25.0 mg/kg/injection, schedule: Q01DX009 (ip), vehicle: saline) was 102 % of control, the T/C (dose: 50.0 mg/kg/injection, schedule: Q01DX009 (ip), vehicle: saline) was 96 % of control and 108 % of control and the T/C (dose: 100.0 mg/kg/injection, schedule: Q04DX003 (ip), vehicle: saline) was 97 % of control. For the same molecule, the T/C (dose: 200.0 mg/kg/injection, schedule: Q04DX003 (ip), vehicle: saline) was 113 % of control.
`CCOC(=O)c1cn(C2OC(COC(=O)c3ccccc3)C(OC(=O)c3ccccc3)C2OC(=O)c2ccccc2)c(=O)nc1Nc1ccccc1Br` (stereo not drawn) was tested, and the T/C [14] was 97 % of control and the T/C [15] was 97 % of control.
In the case of `OCC1OC(c2[nH]nc3c(Cl)ncnc23)C(O)C1O` (stereo not drawn), the T/C [14] is reported as 108 % of control and the T/C [15] is reported as 120 % of control.
For `CCOC(=O)CCC1CCCC1CC(=O)OCC` (stereo not drawn), the T/C (dose: 100.0 mg/kg/injection, schedule: Q01DX001 (ip), vehicle: acetone) was 97 % of control, the T/C (dose: 200.0 mg/kg/injection, schedule: Q01DX001 (ip), vehicle: acetone) was 101 % of control and the T/C (dose: 400.0 mg/kg/injection, schedule: Q01DX001 (ip), vehicle: acetone) was 86 % of control.
`COc1ccc(CCC(C)=O)cc1` was tested, and the T/C [5] was 96 % of control, the T/C [6] was 89 % of control and the T/C [7] was 105 % of control. For the same molecule, the T/C [8] was 102 % of control, the T/C [10] was 96 % of control and the T/C [9] was 98 % of control.
`C=CCOP(=O)(N1CC1C)N1CC1C` (stereo not drawn) was tested, and the T/C (dose: 29.0 mg/kg/injection, schedule: Q01DX015 (ip), vehicle: saline) was 105 % of control, the T/C (dose: 44.0 mg/kg/injection, schedule: Q01DX015 (ip), vehicle: saline) was 120 % of control and the T/C (dose: 66.0 mg/kg/injection, schedule: Q01DX015 (ip), vehicle: saline) was 114 % of control. The T/C (dose: 89.0 mg/kg/injection, schedule: Q01DX001 (ip), vehicle: saline) was 108 % of control, the T/C [12] was 152 % of control and the T/C (dose: 300.0 mg/kg/injection, schedule: Q01DX001 (ip), vehicle: saline) was 115 % of control. For the same molecule, the T/C [13] was 86 % of control.
`CCCCCCCC1CCCCC1` was tested, and the T/C (dose: 50.0 mg/kg/injection, schedule: Q01DX001 (ip), vehicle: saline) was 101 % of control, the T/C [11] was 98 % of control and the T/C [12] was 101 % of control. The T/C [13] was 98 % of control.
In the case of `CCOC(=O)CC(CC(=O)OCC)NC(=O)c1ccc(N(C)C=O)cc1`, the T/C (dose: 100.0 mg/kg/injection, schedule: Q01DX001 (ip), vehicle: other) is reported as 100 % of control, the T/C (dose: 200.0 mg/kg/injection, schedule: Q01DX001 (ip), vehicle: other) is reported as 102 % of control and the T/C (dose: 400.0 mg/kg/injection, schedule: Q01DX001 (ip), vehicle: other) is reported as 97 % of control.
With `O=P(OCc1ccccc1)(N(CCO)CCO)N(CCCl)CCCl` (stereo not drawn) the T/C (dose: 25.0 mg/kg/injection, schedule: Q01DX Z (ip), vehicle: saline) was 91 % of control, the T/C (dose: 50.0 mg/kg/injection, schedule: Q01DX Z (ip), vehicle: saline) was 100 % of control and the T/C [4] was 94 % of control. The T/C (dose: 200.0 mg/kg/injection, schedule: Q01DX Z (ip), vehicle: saline) was 103 % of control.

Source: PubChem BioAssay AID248 (DTP/NCI, 2004)
